Like-named read-outs stand apart in the source and are kept apart here.
Tests used:
male ICR mice = assay: Toxicity Test (mouse acute toxicity, minimum lethal dose); assay type: in vivo; conditions: po, observed for 24 hours, head prints (10 mg/kg-po)
Description: The test compounds were orally administered to male ICR mice (weighing to 30 g) after fasting overnight. […] The results were expressed by minimum lethal dose. Toxicity of any compounds of the present invention were weaker than that of ketotifen which was a reference compound.

[1] = test system: extracted ileum (histamine contraction); assay: Antihistaminic activity: suppression of histamine-induced contraction of extracted ileum; design: species or system Female Hartley guinea pig; conditions: histamine 3×10^-7 M; guinea pig ileum; 50% suppression of contraction; read-out: anti-His in extracted ileum EC50
Method: Female Hartley guinea pig (weighing 500 to 650 g) were sacrificed and the ileum (length of about 10 to 25 cm) was extracted from the ileocecum to prepare a specimen (length of 3 cm). […] After allowing to stand for 60 minutes to make the specimen stable, a histamine (3×10^-7 M) was applied to the specimen at single application. Contraction of the specimen was determined and recorded using isotonic transducer. After repeating application of a histamine to make the contraction constant, a diluted solution of the test compound was applied. Three minutes after the application, a histamine was then added and an activity of suppressing contraction was examined.

[2] = test system: passive cutaneous anaphylaxis (PCA); assay: Activity of suppressing passive cutaneous anaphylaxis (PCA); assay type: in vivo, Male Wistar rats
Method: Test compounds were examined on their antiallergic activities. […] After 48 hours, 1.0 ml of 0.5 % Evans Blue saline solution containing DNP.BSA (1 mg in protein) was injected through the tail vein to induce allergic reaction. After 30 minutes, the rats were sacrificed by bleeding and the skin of back where dye was leaked out was flayed and put it into 20 ml test tube with ground stopper. Thereto was added 1.0 ml of 1N KOH aqueous solution and then it was allowed to stand at 37° C. in incubator overnight for lysing. To this solution was added 8.3 ml of a mixture of acetone and 0.6N phosphoric acid (13:5) and the mixture was mixed well and then was filtered to remove the insoluble materials.
The test compounds were administered orally 1 hour before the antigen challenge. Suppression rate was expressed by percentage to the value in control where 0.5% aqueous methylcellulose solution was orally administered.

[3] = test system: mouse biphasic allergic dermal reaction; assay: Mouse Biphasic Allergic Dermal Reaction; assay type: in vivo, Female Balb/c mice; conditions: for inhibition in vivo at 1 mg/kg / inhibition in vivo at 0.1 mg/kg / inhibition in vivo at 3 mg/kg / inhibition in vivo at 10 mg/kg / inhibition in vivo at 30 mg/kg: Mus musculus; for suppression of the late allergic reaction (in words): edema after 24 hours; for suppression of the immediate allergic reaction (in words): edema after 1 hour
Method: Female Balb/c mice (weighing 18 to 25 g) were subjected to passive sensitization by intravenous administration of 1 ml of anti-DNP monoclonal IgE antibody showing 1:1024 of antibody titer. 24 hours after the sensitization, 25 μl of 0.15% dinitrofluorobenzene (DNFB) were applied to both sides of right and left auricles of mouse for inducing allergic reactions. Thickness of auricles were measured using Dial Thickness Gauge before the challenge with DNFB, and 1 and 24 hours after the challenge. And then, increase in thickness of auricles at 1 hour after the challenge (edema caused by immediate allergic reaction) and that at 24 hours after the challenge (edema caused by late allergic reaction) were calculated against the thickness of auricles before the challenge with DNFB, respectively.
Suppression rate was expressed by relative ratio (%) to the value in control in which a solvent was administered.
Test compounds, diphenhydramine which is a existing classical antihistamic drug, amlexanox which is an antiallergic drug and dexamethasone which is a steroidal drug were administered orally (partly intraperitoneally) once before antigen challenge.
The above test was performed by using a mouse biphasic allergic dermal reaction model which was a new model [see, Sakurai T, Inagaki, N. and Nagai, H Life Sci., 54, PL291-295 (1994)]. In this model, the immediate allergic reaction was induced by mediator release from mast cell at 1 hour after the challenge, and the late allergic reaction with inflammatory cells such as eosinophil (edema after 24 hours) was induced after 24 hours from the challenge.

[4] = Rattus norvegicus, po, 1 h, 10 mg/kg-po, 1 hour before antigen challenge, read-out: % suppression of rat PCA
[5] = 1 h, 1.0 mg/kg, oral, read-out: immediate edema (1 hr) suppression (%)
[6] = 24 h, 0.1 mg/kg, oral, read-out: late edema (24 hr) suppression (%)
[7] = 24 h, 1.0 mg/kg, oral, read-out: late edema (24 hr) suppression (%)
[8] = po, 1 h, read-out: immediate edema (1 hr) suppression (%)
[9] = po, 24 h, read-out: late edema (24 hr) suppression (%)

EC50 [1] [µM] | Compound | inhibition in vivo at 10 mg/kg [2, 4] [%] | further results
0.46 | CNS(=O)(=O)CCCCCN1CCN(C(c2ccccc2)c2ccccc2)CC1 [Example 19] | 78 | –
0.33 | CCNS(=O)(=O)CCCCCCCCN1CCN(C(c2ccc(F)cc2)c2ccccn2)CC1 (stereo not shown) [Example 34] | 84.8 | –
0.56 | CCCNS(=O)(=O)CCCCCCN1CCN(C(c2ccccc2)c2ccc(Cl)cc2)CC1 (stereo not shown) [Example 36] | 77.5 | –
0.39 | O=S(=O)(CCCCCCCCN1CCN(C(c2ccc(F)cc2)c2ccccn2)CC1)NC1CC1 (stereo not shown) [Example 57] | 90.6 | inhibition in vivo at 1 mg/kg [3, 5]: 31.6%; inhibition in vivo at 0.1 mg/kg [3, 6]: 7.7%; inhibition in vivo at 1 mg/kg [3, 7]: 46.2%; suppression of the late allergic reaction (in words) [3]: showed strong activity of suppressing the late allergic reaction
0.35 | O=S(=O)(CCCCCCCCCCN1CCN(C(c2ccc(F)cc2)c2ccccn2)CC1)NC1CC1 (stereo not shown) [Example 58] | 76.5 | –
0.37 | CN(C)S(=O)(=O)CCCCCCN1CCN(C(c2ccccc2)c2ccc(F)cc2)CC1 (stereo not shown) [Example 68] | 94.5 | –
0.79 | CN(C)S(=O)(=O)CCCCCCN1CCN(C(c2ccc(F)cc2)c2ccccn2)CC1 (stereo not shown) [Example 82] | 86.8 | –
0.4 | CNS(=O)(=O)CCCCCN1CCN(C(c2ccccc2)c2ccc(Cl)cc2)CC1 (stereo not shown) [Example 106] | 90.3 | –
0.62 | CCNS(=O)(=O)CCCCCCCN1CCN(C(c2ccccc2)c2ccc(Cl)cc2)CC1 (stereo not shown) [Example 107] | 87.8 | –
0.57 | CC(C)NS(=O)(=O)CCCCCN1CCN(C(c2ccccc2)c2ccc(Cl)cc2)CC1 (stereo not shown) [Example 110] | 88.3 | –
0.71 | O=S(=O)(CCCCN1CCN(C(c2ccccc2)c2ccc(Cl)cc2)CC1)NC1CC1 (stereo not shown) [Example 113] | 87.5 | –
0.56 | O=S(=O)(CCCCCN1CCN(C(c2ccccc2)c2ccc(Cl)cc2)CC1)NC1CC1 (stereo not shown) [Example 114] | 83.5 | –
0.33 | O=S(=O)(CCCCCCN1CCN(C(c2ccccc2)c2ccccn2)CC1)NC1CC1 (stereo not shown) [Example 123] | 83.5 | –
0.3 | O=S(=O)(CCCCCCN1CCN(C(c2ccccc2)c2ccccc2)CC1)NC1CC1 [Example 126] | 80.8 | –
0.41 | O=S(=O)(CCCCCN1CCN(C(c2ccccc2)c2ccc(Cl)cc2)CC1)NC1CCC1 (stereo not shown) [Example 127] | 90.7 | –
0.58 | O=S(=O)(CCCCCCN1CCN(C(c2ccccc2)c2ccccc2)CC1)NC1CCC1 [Example 134] | 87.1 | –
0.21 | O=S(=O)(CCCCCCN1CCN(C(c2ccccc2)c2ccccc2)CC1)NC1CCCC1 [Example 141] | 87.4 | –
0.31 | O=S(=O)(CCCCCCN1CCN(C(c2ccccc2)c2ccccc2)CC1)NC1CCCCC1 [Example 149] | 97.7 | –
– | NS(=O)(=O)CCCCCCN1CCN(C(c2ccccc2)c2ccc(Cl)cc2)CC1 (stereo not shown) [Example 153, potassium 6-[[4-(4-chlorophenyl)phenylmethyl]-1-piperazinyl]hexylsulfonamide] | – | mouse acute toxicity (lethal dose) (male ICR mice): > 500 mg/kg; % suppression of rat PCA ([2]; 10 mg/kg-po, 1 hour before antigen challenge): 86.2%; inhibition in vivo at 0.1 mg/kg ([3]; 1 h, 0.1 mg/kg, oral, read-out: immediate edema (1 hr) suppression (%)): 24%; inhibition in vivo at 1 mg/kg [3, 5]: 56%; inhibition in vivo at 0.1 mg/kg [3, 6]: 24%; inhibition in vivo at 1 mg/kg [3, 7]: 48%
– | O=S(=O)(O)CCCCN1CCN(C(c2ccc(F)cc2)c2ccccn2)CC1 (stereo not shown) [Ref. Ex. 4, 4-[4-[4-fluorophenyl-(2-pyridyl)methyl]-1-piperazinyl]butylsulfonic acid, reference compound] | 0 | antiallergic activity / activity of suppressing PCA (in words) ([2]; rat, in vivo): did not show an antiallergic activity
– | CC(C)c1ccc2oc3nc(N)c(C(=O)O)cc3c(=O)c2c1 [amlexanox, reference compound] | – | inhibition in vivo at 3 mg/kg [3, 8]: 38.5%; inhibition in vivo at 10 mg/kg [3, 8]: 38.5%; inhibition in vivo at 30 mg/kg [3, 8]: 50%; inhibition in vivo at 3 mg/kg [3, 9]: 12.1%; inhibition in vivo at 30 mg/kg [3, 9]: 6.1%; suppression of the immediate allergic reaction (in words) [3]: suppressed the immediate allergic reaction; suppression of the late allergic reaction (in words) [3]: did not suppress the late allergic reaction
– | C[C@@H]1C[C@H]2[C@@H]3CCC4=CC(=O)C=C[C@]4(C)[C@@]3(F)[C@@H](O)C[C@]2(C)[C@@]1(O)C(=O)CO [dexamethasone, reference compound] | – | inhibition in vivo at 0.1 mg/kg ([3]; ip, 1 h, 0.1 mg/kg (i.p.), read-out: immediate edema (1 hr) suppression (%)): 32.4%; inhibition in vivo at 1 mg/kg ([3]; ip, 1 h, dexamethasone 1.0 mg/kg, (i.p.) printed only at the 0.1 line, read-out: immediate edema (1 hr) suppression (%)): 32.4%; inhibition in vivo at 3 mg/kg ([3]; ip, 1 h, dexamethasone 3.0 mg/kg, (i.p.) printed only at the 0.1 line, read-out: immediate edema (1 hr) suppression (%)): 11.8%; inhibition in vivo at 0.1 mg/kg ([3]; ip, 24 h, 0.1 mg/kg (i.p.), read-out: late edema (24 hr) suppression (%)): 34.3%; inhibition in vivo at 1 mg/kg ([3]; ip, 24 h, dexamethasone 1.0 mg/kg, (i.p.) printed only at the 0.1 line, read-out: late edema (24 hr) suppression (%)): 42.9%; inhibition in vivo at 3 mg/kg ([3]; ip, 24 h, dexamethasone 3.0 mg/kg, (i.p.) printed only at the 0.1 line, read-out: late edema (24 hr) suppression (%)): 45.7%; suppression of the late allergic reaction (in words) [3]: showed the strong activity of suppressing the late allergic reaction
– | CN(C)CCOC(c1ccccc1)c1ccccc1 [diphenhydramine, reference compound] | – | inhibition in vivo at 3 mg/kg ([3]; 1 h, 3.0 mg/kg, oral, read-out: immediate edema (1 hr) suppression (%)): 17.8%; inhibition in vivo at 10 mg/kg ([3]; 1 h, 10.0 mg/kg, oral, read-out: immediate edema (1 hr) suppression (%)): 13.3%; inhibition in vivo at 30 mg/kg ([3]; 1 h, 30.0 mg/kg, oral, read-out: immediate edema (1 hr) suppression (%)): 53.3%; inhibition in vivo at 30 mg/kg ([3]; 24 h, 30.0 mg/kg, oral, read-out: late edema (24 hr) suppression (%)): 14.3%; suppression of the immediate allergic reaction (in words) [3]: suppressed the immediate allergic reaction; suppression of the late allergic reaction (in words) [3]: did not suppress the late allergic reaction
– | CN1CCC(=C2c3ccccc3CC(=O)c3sccc32)CC1 [ketotifen, reference compound] | – | mouse acute toxicity (lethal dose) (male ICR mice): 500 mg/kg; inhibition in vivo at 2 mg/kg ([2]; Rattus norvegicus, po, 1 h, read-out: % suppression of rat PCA): 47.4 to 73.6%

Compound | EC50 [1] [µM] | inhibition in vivo at 10 mg/kg [2, 4] [%] | further results
NS(=O)(=O)CCCCCCN1CCN(C(c2ccccc2)c2ccc(Cl)cc2)CC1 (stereo not shown) [Example 3] | 0.76 | 95.2 | mouse acute toxicity (lethal dose) (male ICR mice): > 500 mg/kg
NS(=O)(=O)CCCCCCCCN1CCN(C(c2ccccc2)c2ccc(Cl)cc2)CC1 (stereo not shown) [Example 4] | 0.65 | 89 | mouse acute toxicity (lethal dose) (male ICR mice): > 500 mg/kg
NS(=O)(=O)CCCCCCCCN1CCN(C(c2ccc(F)cc2)c2ccccn2)CC1 (stereo not shown) [Example 13] | 0.32 | 73.8 | mouse acute toxicity (lethal dose) (male ICR mice): > 500 mg/kg
CNS(=O)(=O)CCCCCCN1CCN(C(c2ccccc2)c2ccc(Cl)cc2)CC1 (stereo not shown) [Example 21] | 0.51 | 89.7 | mouse acute toxicity (lethal dose) (male ICR mice): > 500 mg/kg
CNS(=O)(=O)CCCCCCN1CCN(C(c2ccc(F)cc2)c2ccccn2)CC1 (stereo not shown) [Example 26] | 0.3 | 71 | mouse acute toxicity (lethal dose) (male ICR mice): > 500 mg/kg

From patent US5716950A, “Diazacycloalkanealkylsulfonamide derivatives” (Nippon Shoji Kabushiki Kaisha, priority 1994, dated 1998)
